Read-outs that look alike come from different tables or passages of the source.
System: P. falciparum Dd2 (PfLuc) line expressing firefly luciferase, asexual blood stage
Assay: microbe, parasite or virus in culture
Type: cell-based, Plasmodium falciparum
Conditions: Plasmodium falciparum
[1] = DD2, 8-pt dose response, 96hr, read-out: P. falciparum Luciferase ABS 8-pt Reconfirmation Dose Response (96hr): IC50
[2] = DD2, 8-pt dose response, 96hr, read-out: P. falciparum Luciferase ABS 8-pt Reconfirmation Dose Response (96hr): Maximum inhibition (%)
[3] = DD2, read-out: P. falciparum Luciferase ABS 11-pt Reconfirmation Dose Response (48hr): IC50, 11-pt dose response, 48hr
[4] = DD2, 11-pt dose response, 48hr, read-out: P. falciparum Luciferase ABS 11-pt Reconfirmation Dose Response (48hr): Maximum inhibition (%)
[5] = DD2, 11-pt dose response, 96hr, read-out: P. falciparum Luciferase ABS 11-pt Reconfirmation Dose Response (96hr): IC50
[6] = DD2, 11-pt dose response, 96hr, read-out: P. falciparum Luciferase ABS 11-pt Reconfirmation Dose Response (96hr): Maximum inhibition (%)
[7] = DD2, read-out: CDD P. falciparum Luciferase ABS 11-pt Reconfirmation Dose Response (48hr): IC50 (μM), 11-pt dose response, 48hr
[8] = DD2, 8-pt dose response, 96hr, read-out: CDD P. falciparum Luciferase ABS 8-pt Reconfirmation Dose Response (96hr): IC50
[9] = DD2, 8-pt dose response, 96hr, read-out: CDD P. falciparum Luciferase ABS 8-pt Reconfirmation Dose Response (96hr): Maximum inhibition (%)
[10] = DD2, 11-pt dose response, 48hr, read-out: CDD P. falciparum Luciferase ABS 11-pt Reconfirmation Dose Response (48hr): Maximum inhibition (%)
[11] = DD2, 11-pt dose response, 96hr, read-out: CDD P. falciparum Luciferase ABS 11-pt Reconfirmation Dose Response (96hr): IC50
[12] = DD2, 11-pt dose response, 96hr, read-out: CDD P. falciparum Luciferase ABS 11-pt Reconfirmation Dose Response (96hr): Maximum inhibition (%)

Row | Structure (SMILES) | IC50 [1] [µM] | Emax [2] [%] | other results
1 | O=S(=O)(NC[C@H]1C[C@@H]2CCN1C[C@@H]2CN1CCCC1)c1ccc(Cl)cc1 [DDD01024774] | 1.46 | 91 | 
2 | CN(C[C@H]1CN2CC[C@H]1C[C@@H]2CNC(=O)c1ccco1)c1ccccc1 [DDD01024849] | 1.76 | 83.2 | 
3 | O=C([C@@H]1Cc2[nH]cnc2CN1Cc1cc2ccccc2o1)N1CCCC1 [DDD01024952] | 1.42 | 91 | 
4 | CCC1CN(CC(=O)NCCN2CCCCCC2)c2ccccc2S1 (centres unmarked) [DDD01025851] | 1.73 | 82.5 | 
5 | CN1CC[C@H](N(Cc2ccccc2)CC2CC2)C[C@H](O)C1 [DDD01026225] | 1.29 | 82 | 
6 | CC(C)n1ncc2c1NC(=O)CC21C(=O)Nc2c(Cl)ccc(Cl)c21 (centres unmarked) [DDD01027128] | 1.59 | 94.1 | 
7 | CN1CCn2c(-c3cccc(F)c3)cnc2C12CCN(CC1CC1)CC2 [DDD01030549] | 1.2 | 84.4 | 
8 | c1cncc(-c2ccc3c(c2)CCC32CCNCC2)c1 [DDD01031368] | 1.35 | 95.6 | 
9 | Cc1ccc(CN2CCCC3(CCN(Cc4ccoc4)CC3)C2)cc1 [DDD01031609] | 1.16 | 88.7 | IC50 [3]: 3.17 µM; Emax [4]: 88.7%; IC50 [5]: 0.742 µM; Emax [6]: 98.3%
10 | c1ccc(NC[C@@H]2CCC[C@@H]3CN(Cc4cccnc4)C[C@@H]32)nc1 [DDD01032334] | 1.72 | 81.5 | 
11 | COc1cccc(-n2ccc3nc(N4CCCC4)ncc3c2=O)c1 [DDD01034957] | 1.6 | 95.4 | IC50 [3]: > 4.16 µM; Emax [4]: 13.2%; IC50 [5]: 0.531 µM; Emax [6]: 98.6%
12 | Fc1ccc(Sc2ccccc2CNC2=NCCN2)cc1 [DDD01035542] | 1.81 | 81.8 | 
13 | Fc1ccccc1Sc1ccccc1CNC1=NCCN1 [DDD01035543] | 1.57 | 83.6 | 
14 | O=C(Cn1ccc2ccc(Br)cc21)NC[C@@H]1CCCN2CCCC[C@H]12 [DDD01035644] | 2.57 | 81.8 | 
15 | c1cnc(N2CCC3(CC2)CN(CC2CC2)c2ccccc23)nc1 [DDD01036239] | 1.74 | 90.6 | 
16 | COc1ccc(CN2CC[C@@H](O)[C@@H]2Cc2ccccc2)cc1 [DDD01037044] | 1.83 | 77.4 | 
17 | CCc1ccc(-c2cc(C(F)(F)F)nc(N3CCC(N)CC3)n2)cc1 [DDD01037626] | 1.72 | 93.8 | IC50 [3]: 1.86 µM; Emax [4]: 98.9%; IC50 [5]: 0.828 µM; Emax [6]: 100%
18 | Cc1cc(C)n(CCCn2cncc2-c2ccc3c(c2)CC(C)N3C)n1 (centres unmarked) [DDD01056528] | 1.7 | 94.8 | 
19 | Cc1nn(C)c(C)c1CCn1cncc1-c1ccc2c(c1)CC(C)N2C (centres unmarked) [DDD01056530] | 1.85 | 94.7 | 
20 | CN(C)CCn1nc(C2CCN(Cc3ccccc3)C2)c2cccnc21 (centres unmarked) [DDD01056665] | 1.99 | 70.9 | 

Row | Structure (SMILES) | IC50 [1] [µM] | Emax [2] [%] | other results
21 | Cc1cc(Cc2cccc(C(F)(F)F)c2)cc(C2CCCNC2)n1 (centres unmarked) [DDD01057885] | 1.24 | 92 | IC50 [3]: 4.53 µM; IC50 [5]: 0.958 µM; Emax [6]: 100%
22 | COc1cccc(OC)c1CNC(Cc1ccsc1)c1ccc(C)cn1 (centres unmarked) [DDD01058770] | 1.56 |  | 
23 | CCn1cncc1CN1CCN(CC2(c3ccc(C)cc3)CC2)CC1 [DDD01059073] | 1.26 | 85.6 | 
24 | CN(C(=O)c1ccon1)[C@@H]1CCC[C@@H](Oc2ccccc2)[C@@H]1O [DDD01059734] | 1.12 | 85.7 | 
25 | CN1CCCCC1c1ncc2c(n1)CCN(Cc1ccc(F)cc1)C2 (centres unmarked) [DDD01059924] | 1.65 | 84.5 | 
26 | Cc1cc(C)c2cc(CNC3CCCCC3)c3nn(C)c(=O)n3c2c1 [DDD01060652] | 1.15 | 88.2 | 
27 | Cc1cnccc1CN1CC[C@H](Oc2cccc(F)c2)[C@@](C)(O)C1 [DDD01060866] | 1.79 | 91.8 | 
28 | CCCOc1ccccc1CN[C@@H]1CCC[C@H]1Cc1cc(C)no1 [DDD01060989] | 2.71 | 79.8 | 
29 | COc1cccc([C@H]2CN(C(C)=O)[C@@H]3CCN(Cc4ccsc4)C[C@H]23)c1 [DDD01061089] | 1.31 | 82.2 | 
30 | CCC(CC)(CN)NC(C)c1ccccc1 (centres unmarked) [DDD01061915] |  |  | IC50 [7]: > 12.5 µM; IC50 [8]: 1.02 µM; Emax [9]: 85.9%; Emax [10]: 49.2%; IC50 [11]: > 1.39 µM; Emax [12]: 87.7%
31 | Cn1ccnc1C(O)(CCNCc1ccc(Cl)o1)C(F)(F)F (centres unmarked) [DDD01062848] | 2.81 | 78.7 | 
32 | Clc1cc(CN2CCCN3CCCC3C2)c2ncccc2c1 (centres unmarked) [DDD01063271] | 1.74 | 93 | 
33 | Cn1ccnc1CNC1CCCOc2c1ccc1ccccc21 (centres unmarked) [DDD01063614] | 1.52 | 80.3 | 
34 | CC(O)CN1CCC(CN(C)Cc2cc(F)cc3cccnc23)CC1 (centres unmarked) [DDD01063726] | 1.33 | 92.8 | 
35 | CC(C)(NCc1cccc(O)c1)c1ccc2c(c1)OCO2 [DDD01063924] | 1.21 | 84.9 | 
36 | CC(NCCc1nccn1Cc1ccccc1)c1cccs1 (centres unmarked) [DDD01065609] | 1.39 | 85.7 | 
37 | Cc1ccc(C(C)NCCc2nccn2Cc2ccccc2)o1 (centres unmarked) [DDD01065613] | 1.62 | 82.8 | 
38 | CCC(CNC(=O)CNC(C)=O)Oc1cccc(F)c1 (centres unmarked) [DDD01066100] | 2.09 | 83.9 | IC50 [3]: 6.31 µM; Emax [4]: 55.6%; IC50 [5]: 2.15 µM; Emax [6]: 83.4%
39 | CN(C)CCN(Cc1cccnc1)C(=O)c1ccn(-c2ccccc2)n1 [DDD01066387] | 1.43 | 81.1 | 
40 | CCN(C)CC1CCN(S(=O)(=O)c2cc(C)c(F)cc2Cl)C1 (centres unmarked) [DDD01067996] | 1.72 | 86.1 | 

Row | Structure (SMILES) | IC50 [1] [µM] | Emax [2] [%] | other results
41 | CCN1CCC(CNCc2cc(C)ccc2OC)C1 (centres unmarked) [DDD01069824] | 1.26 | 90.1 | 
42 | CNS(=O)(=O)c1cccc(C(C)NCc2ccccc2OC)c1 (centres unmarked) [DDD01069885] | 1.18 | 80.1 | 
43 | O=C(CCN1CCCC1c1cccc2c1OCCO2)N1CCCCC1 (centres unmarked) [DDD01070009] |  |  | IC50 [7]: 6.96 µM; IC50 [8]: 1.06 µM; Emax [9]: 80.3%; Emax [10]: 51%; IC50 [11]: 2.64 µM; Emax [12]: 84.9%
44 | CCN(CC1CN(Cc2nc(C3CC3)no2)CCO1)c1cccnn1 (centres unmarked) [DDD01070232] | 1.86 | 79.6 | 
45 | Fc1ccc2c(C3=CCN(Cc4nnc(C5CCC5)o4)CC3)c[nH]c2c1 [DDD01071325] | 1.7 | 88.7 | 
46 | Cc1cn2c(n1)C(CNCC1=Cc3cc(Cl)ccc3OC1)CCC2 (centres unmarked) [DDD01073229] | 1.71 |  | 
47 | COc1ccccc1C(C)(C)NCc1ccc(C)o1 [DDD01074244] | 1.77 | 82.7 | 
48 | CC(=O)N(c1ccc(C)cc1)c1nc(CN2CCCC(C)C2)cs1 (centres unmarked) [DDD01075341] | 1.83 | 86.4 | 
49 | CCC(NCc1ccccc1Cl)c1ccccc1OCC(=O)NC (centres unmarked) [DDD01075649] | 1.9 | 81.7 | IC50 [3]: > 12.5 µM; Emax [4]: 57.7%; IC50 [5]: 3.66 µM; Emax [6]: 86.1%
50 | CCC(NCc1ccccc1C)c1ccccc1OCC(=O)NC (centres unmarked) [DDD01075651] |  |  | IC50 [7]: > 12.5 µM; IC50 [8]: 0.85 µM; Emax [9]: 76.9%; Emax [10]: 60.7%; IC50 [11]: 2.43 µM; Emax [12]: 84.1%
51 | CCC(NCc1cccc(Cl)c1)c1ccccc1OCC(=O)NC (centres unmarked) [DDD01075652] | 1.31 | 76.5 | 
52 | CC(C)Oc1ccc(C(O)CNCc2ccccc2C(F)(F)F)cc1 (centres unmarked) [DDD01076007] | 1.5 | 80.1 | 
53 | Cc1cnn(CCCNCc2csc(COc3ccccc3)n2)c1 [DDD01077297] | 1.25 | 85.8 | IC50 [3]: 7.24 µM; Emax [4]: 63.7%; IC50 [5]: 1.2 µM; Emax [6]: 86.7%
54 | CO[C@@H]1CCN(Cc2ccoc2)C[C@@H]1Cc1ccccc1 [DDD01081909] |  |  | IC50 [8]: 1.08 µM; Emax [9]: 85.9%
55 | FC1(F)CCN(Cc2cccnc2)CC12CCN(c1ccccc1)C2 (centres unmarked) [DDD01082961] | 1.65 | 91.5 | 
56 | Fc1cnc(N2CCCC3(CCN(Cc4ccoc4)C3)C2)nc1 (centres unmarked) [DDD01084184] | 1.79 | 83.1 | 
57 | CC(C)[C@H](CO)Nc1nccc(-c2c[nH]nc2-c2ccncc2)n1 [DDD01235869] | 1.69 | 82 | 
58 | CC(Nc1nc(-c2ccccc2)nc2c1CCNCC2)c1cccnc1 (centres unmarked) [DDD01244613] | 1.58 | 92.9 | 
59 | Cc1ncc(CN(C)C2CCCN(CCc3ccccc3)C2)n1C (centres unmarked) [DDD01244648] |  |  | IC50 [7]: 6.24 µM; IC50 [8]: 0.88 µM; Emax [9]: 88.5%; Emax [10]: 55.1%; IC50 [11]: 1.78 µM; Emax [12]: 88.7%
60 | CC(C)=CCN1CCC2(CC1)c1ccccc1[C@@H](N1CCSCC1)[C@@H]2O [DDD01245335] | 1.31 | 82.4 | 
